The record followed here is EP1246824B1, “CARBOXAMIDE DIAZEPIN DERIVATIVES, PREPARATION METHOD, USE AS MEDICINES, PHARMACEUTICAL COMPOSITIONS AND USE THEREOF” (Aventis Pharma S.A., priority 1999, dated 2001).

Common to all, as to format: biochemical
Assay [1] concerns the target T1, Papain (Carica papaya, UniProt P00784).
T1 construct: purchased Sigma
T1 sequence (P00784 134-345): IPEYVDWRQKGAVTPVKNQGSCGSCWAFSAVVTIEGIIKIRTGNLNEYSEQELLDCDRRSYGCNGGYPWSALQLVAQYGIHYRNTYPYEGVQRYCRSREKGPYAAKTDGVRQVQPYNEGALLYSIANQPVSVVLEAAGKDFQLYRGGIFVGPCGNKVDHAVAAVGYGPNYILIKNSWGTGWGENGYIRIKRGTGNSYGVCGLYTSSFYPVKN
Description: Inhibition of Papain (protocol as for Cathepsine K). As to the method: (§1) Les produits à tester (10 mM) sont dilués à 1 mM en DMSO et repartis dans des plaques 96 puits polystyrène Nunc à raison de 2 µl par puits. La colonne 12 de la plaque est réservée pour les contrôles et reçoit donc […] de DMSO (sans produits) par puits. Les plaques sont conservées à -80°C et décongelées le jour de l'expérience.
(§2) Les produits sont dilués à 50 µM par addition de 38 µl de tampon réaction : acétate de sodium 100 mM, EDTA 5 mM, DTT 1 mM pH 5,5. L'addition ainsi que tous les pipetages suivant sont réalisés par un pipeteur 96 cônes CybiWell. Après mélange des solutions, chaque produit est transféré dans 2 puits (duplicates) d'une plaque 384 puits noire Greiner à raison de 10 µl par puits. On peut donc tester 2 plaques 96 dans une plaque 384.
(§3) Une solution de substrat à 50 µM, Z-Val-arg-AMC (Calbiochem), est préparée dans le tampon réaction . Le substrat, est ensuite distribué dans tous les puits de la plaque 384 (20 µl par puits).
(§4) Une solution de Cathepsine K à 12,5 ng/ml est préparée dans le tampon réaction et distribuée dans tous les puits de la plaque 384 (20 µl par puits) exceptés les 16 puits servant de contrôles 100 % d'inhibition (colonne 23 et 24, lignes I à P) qui recevront 20 µl de tampon sans enzyme. Les contrôles […] d'inhibition sont réalisés dans les colonnes 23 et 24, lignes A à H qui ne contiennent pas de produits.
(§5) Les plaques sont ensuite incubées 2H à température ambiante, puis lues sur Fluoroskan (Labsystems) : excitation 390 nm; émission 460 nm
(§6) Les concentrations finales de chacun des réactifs sont : Produits 10 µM, Substrat 20 µM, enzyme 5 ng/ml.
(§7) Les % d'inhibition pour chacun des produits sont calculés en utilisant les points à 0 et 100 % d'inhibition de chaque plaque comme références. Les produits présentant une inhibition significative sont ensuite retestés sur une gamme de concentration allant de 50 à 0,5µM pour déterminer une IC50.
Etude de l'inhibition de Papain:
Protocole identique à celui de Cathepsine K exceptés : • Papain (Sigma), solution à 50 ng/ml, concentration finale 20 ng/ml • Incubation 30 min à température ambiante

For assay [2], the target named is T2, Cathepsine K (Homo sapiens, UniProt P43235).
T2 sequence (P43235 115-329): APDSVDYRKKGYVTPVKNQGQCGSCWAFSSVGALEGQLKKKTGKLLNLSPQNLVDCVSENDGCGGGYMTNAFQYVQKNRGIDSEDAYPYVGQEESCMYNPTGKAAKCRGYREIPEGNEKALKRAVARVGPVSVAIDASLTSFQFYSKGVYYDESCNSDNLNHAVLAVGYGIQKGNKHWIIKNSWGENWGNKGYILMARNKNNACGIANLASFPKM
Description: Inhibition of Cathepsine K (fluorogenic substrate Z-Val-arg-AMC). The note with it: substrate Z-Val-arg-AMC 20 µM, enzyme 5 ng/ml, pH 5.5, 2 h at room temperature; concentration range 50 to 0.5 µM; read-out: IC50 µM Cathepsin K. The method, then:
Etude de l'inhibition de Cathepsine K :
as §1, §2, §3, §4, §5, §6, §7

In assay [3] the target is T3, Cathepsine B (Homo sapiens, UniProt P07858).
T3 construct: purchased Calbiochem
Description: Inhibition of Cathepsine B (fluorogenic substrate Z-arg-arg-AMC). The note with it: substrate Z-arg-arg-AMC 20 µM, enzyme 16 ng/ml, 1 h at room temperature; read-out: IC50 µM Cathepsin B. The method, then:
as §1, §2, §3, §4, §5, §6, §7
Etude de l'inhibition de Cathepsine B: […]

Like-named read-outs stand apart in the source and are kept apart here.

As to `CC(C)(C)Oc1ccc(C[C@H](NC(=O)[C@@H]2CCCN3C(=O)CC[C@H](NC(=O)Nc4ccc(Oc5ccccc5)cc4)C(=O)N23)C(=O)C=[N+]=[N-])cc1` [Exemple 54, 9-[(9S)-[[(4-phenoxyphenyl)amino]carbonyl]amino]-N-[(2S)-4-diazo-1-[4-[(1,1-dimethyl)ethoxy]phenyl]-3-oxo-2-butyl]-6H-(1S)-pyridazino[1,2-a][1,2]diazepine-1-carboxamide], the IC50 in assay [1] worked out at 15 µM.
In the case of `C=CCOC(=O)CC[C@H](NC(=O)[C@@H]1CCCN2C(=O)CC[C@H](NC(=O)NC3CCCCC3)C(=O)N12)C(=O)COC(=O)c1c(Cl)cccc1Cl` [Exemple 122, (4S) 6-[(2,6-dichlorobenzoyl)oxy] -4-[[[(1S,9S)-9-[[(cyclohexylamino)carbonyl]amino]-octahydro-6,10-dioxo-6H-pyridazino[1,2-a][1,2]diazepine-1-yl]carbonyl]amino]-5-oxo-Hexanoatede (2-propenyle)], the IC50 in assay [2] was found to be 18 µM; in assay [3], 0.7 µM.
Turning to `C=CCOC(=O)CC[C@H](NC(=O)[C@@H]1CCCN2C(=O)CC[C@H](NC(=O)NCCc3cccs3)C(=O)N12)C(=O)CSc1nnnn1-c1ccccc1` [Exemple 138, (4S) 6-[(1-phenyl-1H-tetrazol-5-yl)thio]-4-[[[(1S,9S)-9-[[[[2-(thien-2-yl)-ethyl]amino]carbonyl]amino]-octahydro-6,10-dioxo-6H-pyridazino[1,2-a][1,2]diazepine-1-yl]carbonyl]amino]-5-oxo-Hexanoatede (2-propenyle)], in assay [1] (enzyme 20 ng/ml, 30 min at room temperature, read-out: IC50 µM Papain), the IC50 came to 8 µM.
Regarding `C=CCOC(=O)CC[C@H](NC(=O)[C@@H]1CCCN2C(=O)CC[C@H](NC(=O)NCCc3cccs3)C(=O)N12)C(=O)COC(=O)c1c(Cl)cccc1Cl` [Exemple 141, (4S) 6-[(2,6-dichlorobenzoyl)oxy]-4-[[[(1S,9S)-9-[[[[2-(thien-2-yl)-ethyl]amino]carbonyl]amino]-octahydro-6,10-dioxo-6H-pyridazino[1,2-a][1,2]diazepine-1-yl]carbonyl]amino]-5-oxo-Hexanoatede (2-propenyle)], the IC50 turned out to be 9 µM in assay [2] and 0.7 µM in assay [3].
Take `C=CCOC(=O)CC[C@H](NC(=O)[C@@H]1CCCN2C(=O)CC[C@H](NS(C)(=O)=O)C(=O)N12)C(=O)COC(=O)c1c(Cl)cccc1Cl` [Exemple 150, (4S) 6-[(2,6-dichlorobenzoyl)oxy]-4-[[[(1S,9S)-9-[(methylsulfonyl)amino]-octahydro-6,10-dioxo-6H-pyridazino[1,2-a] [1,2]diazepine-1-yl]carbonyl]amino]-5-oxo-Hexanoatede (2-propenyle)]: the IC50 was 6 µM in assay [2] and 0.6 µM in assay [3].
Regarding `COC(=O)CCCC(=O)OCC(=O)[C@H](Cc1ccccc1)NC(=O)[C@@H]1CCCN2C(=O)CC[C@H](NC(=O)Nc3ccc(Oc4ccccc4)cc3)C(=O)N12` [Exemple 217], the IC50 in assay [1] (read-out: IC50 µM Papain, enzyme 20 ng/ml, 30 min at room temperature) was 7 µM.
Consider `CC(C)C[C@H](NC(=O)[C@@H]1CCCN2C(=O)CC[C@H](NS(=O)(=O)c3ccc(C(F)(F)F)cc3)C(=O)N12)C(=O)C=[N+]=[N-]` [Exemple 347, 9-[(9S)-[[4-(trifluoromethyl)phenyl]sulfonyl]amino]-N-((3S)-1-diazo-5-methyl-2-oxo-3-hexyl)-octahydro-6,10-dioxo-6H-(1S)-pyridazino[1,2-a][1,2]diazepine-1-carboxamide], for which the IC50 in assay [2] was 12 µM.
With “(4S) 6-diazo-4-[[[(1S,9S)-9-[[[[2-(p-2-yl)-ethyl]amino]carbonyl]amino]-octahydro-6,10-dioxo-6H-pyridazino[1,2-a][1,2]diazepine-1-yl]carbonyl]amino]-5-oxo-Hexanoate de (2-propenyle) [Exemple 44]”, the IC50 in assay [2] came out at 2 µM.
